Key:
[1] = test system: Jurkat cells; test: Flow cytometric detection of caspase activity and apoptosis, staurosporine dilution series; format: cell-based
Procedure: Jurkat cells in log phase were resuspended in complete medium (RPMI-1640, supplemented with 10% Fetal Bovine Serum, 2 mM L-glutamine & 55 U/mL) and adjusted to a concentration of 2×10^6 cells per milliliter. 100 μl of cells were aliquoted in each well of a 96-well, V-bottom microplate so that 8 dilutions in triplicate were tested for each substrate.
Drug dilutions for treating cells were created by adding 1000 μL of complete medium containing 2 μM Staurosporine, 1:2 dilutions of this were added to 500 μL of complete medium, so that a series of 8 dilutions of Staurosporine were created.
100 μL of the media/Staurosporine mixtures were added to each well so that 3 wells of cells contained the highest dose, and then repeated for the next set of 3 wells.
Cells were incubated at 37° C., 5% CO2 in a standard cell culture incubator for 4 hours.
After the 4 hour incubation, each well had 1 μL of caspase substrate added so that the final concentration of the substrate was 2 μM of substrate in 200 μL of media. […]
At the end of the incubation, cells were analyzed using an ATTUNE® NXT Acoustic Focusing Cytometer (Thermo Fisher Scientific, Waltham. Mass.) using the 488 nm excitation and 530/30 nm emission filters to detect CELLEVENT™ Green, or the 405 nm excitation laser and the 440/50 nm emission filters to detect Compound 1. […]

[2] = test system: Jurkat cells; test: Flow cytometry of Jurkat cells treated with 1 μM staurosporine for 1 hour, then Compound 1; format: cell-based; settings: for positive population, density plots: not shown
Procedure: In another experiment, Jurkat cells treated with 1 μM Staurosporine for 1 hour (FIG. 5A) or untreated control cells (FIG. 5B) were then treated with Compound 1. Cells were then analyzed on an ATTUNE® NXT flow cytometer. The cells were oriented on a SSC/FSC plot to include both low and high side scatter cells, but to exclude debris and gated to exclude doublets (not shown).

[3] = test system: HeLa cells; test: Fluorescence microscopy detection of caspase activity and apoptosis, nuclear intensity and Z'; format: cell-based; settings: 1 μM versus 1 nM staurosporine, 18 hour incubation, HCSStudio
Procedure: HeLa cells at a density of 7500 cells/well were incubated overnight in growth media (MEM+10% FBS. L-glutamine and Pen-Strep). Half of the plate was treated with 1 μM Staurosporine (FIG. 8B), while the other half was treated with 1 nM Staurosporine (FIG. 8A). After an 18 hour incubation (37° C., 5% CO2), all cells were incubated with SYT®82 (FIGS. 8A and 8B, left panels) and Compound 1 (FIGS. 8A and 8B, center panels). The average intensity of Compound 1 in the cellular nuclear region was calculated using HCSStudio (Compartmental Analysis Bioapplication), and a Z′ was determined (Z′=0.63).

[4] = test system: HeLa cells; test: Fluorescence microscopy and HCS staurosporine dose-response; format: cell-based; settings: 5 hours; for recognition of apoptotic cells, imaging: 5 μM Compound 1 or 9 or 4 μM CELLEVENT Green 3/7, 10 μM to 0 μM staurosporine, FIG. 9A-9C; for dose-response curve of dye fluorescence to staurosporine: 5 μM dye, 10 μM to 0 μM staurosporine, CX5 HCS, FIG. 9D
Procedure: The dye/staurosporine stock solution was diluted 1:10 onto HeLa cells in complete media for a final concentration starting at 5 μM Compound 1 or Compound 9, or 4 μM CELLEVENT Green 3/7 and 10 μM staurosporine and ending at 0 μM staurosporine. After a 5 hour incubation at 37° C., live cells were imaged using white light, DAPI and FITC filters. The cells were then fixed and stained with HCS […]™ Deep Red stain (Thermo Fisher Scientific, Waltham, Mass.) and quantified on a […]™ CX5 High Content Screening (HCS) Platform (Thermo Fisher Scientific, Waltham, Mass.).

[5] = test system: BPAEC cells; test: Dye toxicity experiment, 48 hour incubation, imaging; settings: 5 μM dye 48 hours, then 1 μM staurosporine overnight
Procedure: In another experiment to look at dye toxicity. BPAEC cells were incubated overnight in growth media (DMEM+10% FBS). […] After the 48 hour incubation, DMSO (control) or 1 μM staurosporine (final concentration) was added to a subset of the dye-treated cells and incubated overnight at 37° C.

[6] = test system: Jurkat cells; test: Flow cytometry of Jurkat cells +/- 0.5 μM staurosporine, with SYTOX Dead Cell Stain; format: cell-based; settings: Jurkat cells +/- 0.5 μM staurosporine 3.5 hours, 1 μM dye 30 min, FIG. 7A/7B
Procedure: In yet another experiment, Jurkat cells were resuspended at 1×10^6 cells/ml in RPMI medium+10% FBS and aliquoted into 0.2 ml samples. The cells were treated with 0.5 μM Staurosporine (+STR) or without (−STR) for 3.5 hours at 37° C. […] 1 μl SYTOX™ Dead Cell Stain (Thermo Fisher Scientific, Waltham. Mass.) was added to the cells and incubated for at least 15 min. Cells were analyzed on an ATTUNE™ NXT flow cytometer as described above and were analyzed without washing.

Compound | positive cells (percent positive of intact single cells) ([1]; 1 μM staurosporine 4 hours, 2 μM substrate 30 minutes, FIG. 4A/4B) | detection of apoptosis over the entire staurosporine concentration range, CELLEVENT Green 3/7 versus Compound 1 ([1]; 8 staurosporine dilutions in triplicate, 2 μM substrate, FIG. 3) | Compound 1 positive cells, histograms ([2]; Jurkat cells treated with 1 μM staurosporine for 1 hour, FIG. 5A) | positive population, density plots ([2]; Jurkat cells treated with 1 μM staurosporine for 1 hour) | Compound 1 positive cells, histograms ([2]; untreated control Jurkat cells (no staurosporine) stained with Compound 1, FIG. 5B) | positive population, density plots ([2]; untreated control Jurkat cells (no staurosporine) stained with Compound 1) | Z' from average intensity of Compound 1 in the cellular nuclear region [3] | recognition of apoptotic cells, imaging [4] | dose-response curve of dye fluorescence to staurosporine [4] | detection of staurosporine-induced apoptotic cells after long incubation with dye [5] | distinction of non-apoptotic from apoptotic cell populations [6]
CC(=O)N[C@@H](CC(=O)O)C(=O)N[C@@H](CCC(=O)O)C(=O)N[C@H](C(=O)N[C@@H](CC(=O)O)C(=O)NCCN(C)c1ccc(-c2nc3ccc(-c4nc5ccc(N6CCN(C)CC6)cc5[nH]4)cc3[nH]2)cc1)C(C)C [Compound 1] | 84.9% | essentially no difference | 3.49% | 3.55% | 1.30% | 1.32% | 0.63 | recognize apoptotic cells | good induction of apoptosis | able to detect the staurosporine-induced apoptotic cells | –
CC(=O)N[C@@H](CC(=O)O)C(=O)N[C@@H](CCC(=O)O)C(=O)N[C@H](C(=O)N[C@@H](CC(=O)O)C(=O)NCCCCCN(C)c1ccc(-c2nc3ccc(-c4nc5ccc(N6CCN(C)CC6)cc5[nH]4)cc3[nH]2)cc1)C(C)C [Compound 9] | – | – | – | – | – | – | – | recognize apoptotic cells | good induction of apoptosis | able to detect the staurosporine-induced apoptotic cells | distinguished non-apoptotic from apoptotic cell populations

— patent US10941435B2, “Methods and compositions for detecting or measuring caspases or apoptosis” (priority 2016, dated 2021)
